# Data reported in patent US5780642A, “Imidazole derivatives as therapeutic agents” (KNOLL Aktiengesellschaft, priority 1993, dated 1998).
# Where a name gives a salt, the structure may show the parent alone.
# Tested on: Zymosan Stimulated Macrophages (arachidonic acid release)
# Experiment: Test A: Inhibition of Arachidonic Acid Release from Zymosan Stimulated Macrophages
# Format: cell-based, mouse (female MF1 mice)
# Settings: Mus musculus, Macrophage, inhibition of arachidonic acid release, zymosan stimulated mouse peritoneal macrophages; tested at 100, 50, 20, 10, 5 and 1 μM; ≤100 μM considered active; read-out: Test A IC50
# Description: Test A was carried out in the following way:
# Inhibition of Arachidonic Acid Release from Zymosan Stimulated Macrophages
# Female MF1 mice (weighing 20 to 25 g) were killed using a rising concentration of CO2. The mice were laid on their backs and the abdomens wiped with 70% alcohol. The skin was pulled back, exposing the peritoneal wall. Medium A (5 ml) (see below) was injected into the peritoneal cavity of each mouse followed by approximately 1 ml of air using a 20 ml syringe and a 21G×40 mm needle in order to form a suspension of macrophage cells. The medium and cells were then removed using a 19G×40 mm needle. The resulting suspension was returned to a sterile beaker kept on ice. The extracts from all the mice were pooled and this pooled cell suspension was counted using a Coulter counter and adjusted to a final cell count of 1-1.3×10^6 cells/ml prior to labelling with [^3 H]-arachidonic acid. Typically five mice provided sufficient cells for each multiwell plate.
# Sufficient [^3 H]-arachidonic acid in ethanol to give a final concentration of 1.6 μCi/ml (equivalent to 40 μCi/plate) was blown to dryness under nitrogen. The arachidonic acid was then resuspended in 1 or 2 ml of the cell suspension which was then mixed with the remainder of the cell suspension in a centrifuge bottle. The labelled cell suspension was then plated out into sterile plastic 96 flat-bottomed well plates (250 μl per well) and incubated overnight at 37° C. in a moist atmosphere of 5% CO2, 95% air.
# The following day, non-adherent cells were removed by washing 3 times with sterile phosphate buffered saline (PBS). The adherent peritoneal macrophages were then cultured for a further 24 hours in the presence or absence of drugs, in medium B (see below) at 37° in a 5% CO2 atmosphere in order to measure the effects of drugs on the spontaneous release of arachidonic acid in the absence of stimulus. After this incubation, supernatants were removed to give media 1 and stored in sealed multi-well plates at 4° C. prior to scintillation counting. Drugs which potentiated spontaneous release of arachidonic acid (125% of controls) were deemed to be toxic at the concentration at which this phenomenon occurred. The supernatants were replaced by fresh medium C containing fresh drug and a stimulus. Three drugs were tested at six concentrations (100, 50, 20, 10, 5 and 1 μM) in replicates of four on each plate. The other wells contained controls consisting of a positive control (e.g. dexamethasone), medium (B) only and medium C only.
# Incubation was then continued for a further 5 hours, whereupon the supernatants were collected to give media 2 and the adherent cells washed with PBS. The cells were then lysed with 100 μl of 0.1% TRITON® X100 in a 0.1% solution of bovine serum albumin in 0.9% saline and mechanically disrupted to give cell lysates. These supernatants (media 2) and cell lysates (Cells) were also stored in sealed multi-well plates at 4° C. prior to scintillation counting. 200 μl aliquots of media, or 100 μl aliquots of cells were counted using 2 ml of OPTIPHASE "HIGH SAFE" (Trademark of LKB) as scintillant.
# The percentage of arachidonic acid released was calculated using the mean values for each group of 4 wells in the following equation. [formula]
# The value for the arachidonic acid release in the absence of stimulus (spontaneous, cpm of media 2) from cells which had been exposed to neither stimulus nor drug was subtracted from all equivalent values (cpm media 2, stimulated with or without drug) to give the net stimulated release. The percentage inhibition of arachidonic acid release caused by a drug may then be calculated using the following equation. [formula]
# Compounds of formula I were tested at six concentrations (100, 50, 20, 10, 5 and 1 μM) and IC50 values calculated. Compounds with IC50 values≤100 μM are considered to be active. Advantageous compounds have an IC50 value<50 μM.
# Medium A (for peritoneal lavage) […]
row,SMILES,IC50
1,"c1ccc(COc2ccc(OCCNCCCn3ccnc3)cc2)cc1 [Example 10, N-[2-(4-Benzyloxyphenoxy)ethyl]-3-(imidazol-1-yl)propylamine dihydrochloride hydrate]",36 µM
2,"CC(C)(COc1ccccc1)NCCCn1cnc(CCNC(=O)c2ccccc2)c1 [Example 76, N-(2-{1-[3-(1,1-dimethyl-2-phenoxyethylamino)-propyl]imidazol-4-yl}ethyl)benzamide]",16 µM
3,"COc1ccccc1CCC(C)(C)NCCCn1ccnc1 [Example 36, 3'-(Imidazol-1-yl)-3-(2-methoxyphenyl)-1,1-dimethyldipropylamine]",60 µM
4,"CC(C)(NCCCn1cnc(CCNS(=O)(=O)c2ccccc2)c1)c1ccc(Cl)cc1 [Example 54, N-[2-(1-{3-[1-(4-chlorophenyl)-1-methylethylamino]-propyl}imidazol-4-yl)ethyl]benzenesulphonamide]",7 µM
5,"CC(C)(COCc1ccc(Cl)cc1)NCCCn1ccnc1 [Example 80, N-[2-(4-chlorobenzyloxy)-1,1-dimethylethyl]-3-(imidazol-1-yl)propylamine]",13 µM
6,"CCC(CC)(NCC(O)Cn1ccnc1)c1ccccc1 (stereo not drawn) [Example 44, 1-(1-Ethyl-1-phenylpropylamino)-3-(imidazol-1-yl)-propan-2-ol]",120 µM
7,"COc1ccc(OCC(C)(C)NCCCn2ccnc2)cc1 [Example 108, N-[2-(4-methoxyphenoxy)-1,1-dimethylethyl]-3-(imidazol-1-yl)propylamine dihydrochloride hydrate]",100 µM
8,"CC(C)(NCC(O)Cn1ccnc1)c1ccc(C(=O)NC2CCCCC2)cc1 (stereo not drawn) [Example 48, N-Cyclohexyl-4-{1-[2-hydroxy-3-(imidazol-1-yl)propylamino]-1-methylethyl}benzamide]",70 µM
9,"CC(C)(CNCCCn1ccnc1)c1ccc(Cl)cc1 [Example 13, 2-(4-Chlorophenyl)-3'-(imidazol-1-yl)-2-methyldipropylamine dihydrochloride]",9 µM
10,"CC(C)(COc1ccccc1)NCC(O)Cn1ccnc1 (stereo not drawn) [Example 53, 3-(Imidazol-1-yl)-1-(2-phenoxy-1,1-dimethylethylamino) propan-2-ol]",99 µM
11,"CCCCNC(=O)NCCc1ccc(C(C)(C)NCCCn2ccnc2)cc1 [Example 58, N-butyl-N'-[2-(4-{1-[3-(imidazol-1-yl)propylamino]-1-methylethyl}phenyl)ethyl]urea]",20 µM
12,"CC(C)(NCc1ncc[nH]1)c1ccc(Cl)cc1 [Example 83, 1-(4-chlorophenyl)-N-(imidazol-2-ylmethyl)-1-methylethylamine]",90 µM
13,"CC(C)(NCCCn1cnc(CCNC(=O)c2ccccc2)c1)c1ccc(Cl)cc1 [Example 55, N-[2-(1-(3-[1-(4-chlorophenyl)-1-methylethylamino]propyl}imidazol-4-yl)ethyl]benzamide]",7 µM
14,"CC(C)(COc1ccc(C(F)(F)F)cc1)NCCCn1ccnc1 [Example 39, N-{2-[4-(Trifluoromethyl)phenoxy]-1,1-dimethylethyl}-3-(imidazol-1-yl)propylamine dimaleate]",0.2 µM
15,"CCC(CC)(CO)c1ccc(C(C)(C)NCCCn2ccnc2)cc1 [Example 41, 2-Ethyl-2(4-{1-[3-(imidazol-1-yl)propylamino]-1-methylethyl}phenyl)butan-1-ol]",10 µM
16,"CSc1ccc(OCC(C)(C)NCC(O)Cn2ccnc2)cc1 (stereo not drawn) [Example 51, 3-(Imidazol-1-yl)-1-[2-(4-methylthiophenoxy)-1,1-dimethylethylamino]propan-2-ol]",87 µM
17,"c1ccc(CCCNCCCCCn2ccnc2)cc1 [Example 81, N-(3-phenylpropyl)-5-imidazol-1-ylpentylamine 0.75 hydrate]",65 µM
18,"CC(C)(NCCCn1ccnc1)c1ccc(OS(=O)(=O)c2ccccc2)cc1 [Example 71, 4-{1-[3-(imidazol-1-yl)propylamino]-1-methylethyl}phenyl benzenesulphonate]",23 µM
